“And” between values parts separate entries of the source, which are not always exact repeats. Equal entries are not always repeated.
Test system: Meloidogyne incognita
Assay: Meloidogyne incognita test (sand, salad seedlings, gall formation)
Type: in vivo
Conditions: application rate 20 ppm, after 14 days, 100% = no galls, 0% = galls equal to untreated control
Protocol: Meloidogyne Incognita—Test
Solvent: 125.0 parts by weight of acetone
To produce a suitable preparation of active compound, 1 part by weight of active compound is mixed with the stated amount of solvent, and the concentrate is diluted with water to the desired concentration.
Vessels are filled with sand, a solution of the active ingredient, a suspension containing eggs and larvae of the southern root-knot nematode (Meloidogyne incognita) and salad seeds. The salad seeds germinate and the seedlings grow. Galls develop in the roots.
After 14 days the nematicidal activity is determined on the basis of the percentage of gall formation. 100% means no galls were found and 0% means the number of galls found on the roots of the treated plants was equal to that in untreated control plants.

Row | SMILES | nematicidal activity on the basis of the percentage of gall formation
1 | O=C(NS(=O)(=O)c1ccccc1Cl)c1cc2cc(C(F)(F)F)ccn2n1 [Example I-1, N-[(2-chlorophenyl)sulfonyl]-5-(trifluoromethyl)pyrazolo[1,5-a]pyridine-2-carboxamide] | 100%
2 | O=C(NS(=O)(=O)c1ncc(C(F)(F)F)cc1Cl)c1cc2c(Cl)cc(C(F)(F)F)cn2n1 [Example I-2] | 90%
3 | COc1ccc(Cl)c(S(=O)(=O)NC(=O)c2cc3c(Cl)cc(C(F)(F)F)cn3n2)c1 [Example I-3] | 100% and 90%
4 | O=C(NS(=O)(=O)c1ccccc1C(F)(F)F)c1cc2c(Cl)cc(C(F)(F)F)cn2n1 [Example I-4] | 90%
5 | O=C(NS(=O)(=O)c1ccccc1OC(F)(F)F)c1cc2c(Cl)cc(C(F)(F)F)cn2n1 [Example I-5] | 90%
6 | COc1ccccc1S(=O)(=O)NC(=O)c1cc2c(Cl)cc(C(F)(F)F)cn2n1 [Example I-8] | 90%
7 | O=C(NS(=O)(=O)c1ccc(Cl)cc1)c1cc2c(Cl)cc(C(F)(F)F)cn2n1 [Example I-9] | 100% and 90%
8 | Cc1ccccc1S(=O)(=O)NC(=O)c1cc2c(Cl)cc(C(F)(F)F)cn2n1 [Example I-10] | 90%
9 | O=C(NS(=O)(=O)c1cccc(Cl)c1)c1cc2c(Cl)cc(C(F)(F)F)cn2n1 [Example I-12] | 90%
10 | O=C(NS(=O)(=O)c1cc2c(cc1Cl)OC(F)(F)O2)c1cc2c(Cl)cc(C(F)(F)F)cn2n1 [Example I-14] | 90%
11 | CCS(=O)(=O)NC(=O)c1cc2c(Cl)cc(C(F)(F)F)cn2n1 [Example I-16] | 100%
12 | O=C(NS(=O)(=O)C1CC1)c1cc2c(Cl)cc(C(F)(F)F)cn2n1 [Example I-17] | 100%
13 | O=C(NS(=O)(=O)c1c(Cl)cccc1Cl)c1cc2c(Cl)cc(C(F)(F)F)cn2n1 [Example I-18] | 100%
14 | O=C(NS(=O)(=O)c1ccccc1Cl)c1cc2cc(C(F)(F)F)cc(Cl)n2n1 [Example I-19] | 100%
15 | O=C(NS(=O)(=O)c1ccc(Cl)cc1)c1cc2cc(C(F)(F)F)cc(Cl)n2n1 [Example I-20] | 90%
16 | O=C(NS(=O)(=O)c1c(Cl)cccc1Cl)c1cc2cc(C(F)(F)F)cc(Cl)n2n1 [Example I-21] | 100%
17 | O=C(NS(=O)(=O)c1cc(Cl)ccc1Cl)c1cc2cc(C(F)(F)F)cc(Cl)n2n1 [Example I-22] | 100%
18 | COc1ccc(Cl)c(S(=O)(=O)NC(=O)c2cc3cc(C(F)(F)F)cc(Cl)n3n2)c1 [Example I-23] | 100%
19 | O=C(NS(=O)(=O)c1c(Cl)cccc1Cl)c1cc2cc(C(F)(F)F)ccn2n1 [Example I-25] | 100%
20 | O=C(NS(=O)(=O)c1cc(Cl)ccc1Cl)c1cc2cc(C(F)(F)F)ccn2n1 [Example I-26] | 100%
21 | COc1ccc(Cl)c(S(=O)(=O)NC(=O)c2cc3cc(C(F)(F)F)ccn3n2)c1 [Example I-27] | 100%

Row | SMILES | nematicidal activity on the basis of the percentage of gall formation
22 | O=C(NS(=O)(=O)C1CC1)c1cc2cc(C(F)(F)F)ccn2n1 [Example I-29] | 90%
23 | O=C(NS(=O)(=O)c1cccc(Cl)c1)c1cc2cc(C(F)(F)F)cc(Cl)n2n1 [Example I-30] | 100% and 90%
24 | CCS(=O)(=O)NC(=O)c1cc2cc(C(F)(F)F)cc(Cl)n2n1 [Example I-32] | 90%
25 | O=C(NS(=O)(=O)c1cc(C(F)(F)F)ccc1Cl)c1cc2cc(C(F)(F)F)ccn2n1 [Example I-33] | 100%
26 | CCOc1ccc(Cl)c(S(=O)(=O)NC(=O)c2cc3cc(C(F)(F)F)ccn3n2)c1 [Example I-34] | 100%
27 | CCCOc1ccc(Cl)c(S(=O)(=O)NC(=O)c2cc3cc(C(F)(F)F)ccn3n2)c1 [Example I-35] | 100%
28 | CCc1ccc(Cl)c(S(=O)(=O)NC(=O)c2cc3cc(C(F)(F)F)ccn3n2)c1 [Example I-36] | 100%
29 | COc1ccc(Br)c(S(=O)(=O)NC(=O)c2cc3cc(C(F)(F)F)ccn3n2)c1 [Example I-37] | 100%
30 | COc1ccc(F)c(S(=O)(=O)NC(=O)c2cc3cc(C(F)(F)F)ccn3n2)c1 [Example I-38] | 100%
31 | CSc1cccc(Cl)c1S(=O)(=O)NC(=O)c1cc2cc(C(F)(F)F)ccn2n1 [Example I-39] | 100%
32 | CCSc1cccc(Cl)c1S(=O)(=O)NC(=O)c1cc2cc(C(F)(F)F)ccn2n1 [Example I-40] | 100%
33 | CC(C)Sc1cccc(Cl)c1S(=O)(=O)NC(=O)c1cc2cc(C(F)(F)F)ccn2n1 [Example I-41] | 100%
34 | CC(C)Nc1cccc(F)c1S(=O)(=O)NC(=O)c1cc2cc(C(F)(F)F)ccn2n1 [Example I-42] | 100%
35 | O=C(NS(=O)(=O)c1c(F)cccc1Cl)c1cc2cc(C(F)(F)F)ccn2n1 [Example I-43] | 100%
36 | CCOc1ccc(Cl)c(S(=O)(=O)NC(=O)c2cc3cc(C(F)(F)F)cc(Cl)n3n2)c1 [Example I-44] | 90%
37 | CCCOc1ccc(Cl)c(S(=O)(=O)NC(=O)c2cc3cc(C(F)(F)F)cc(Cl)n3n2)c1 [Example I-45] | 100%
38 | COc1ccc(Cl)c(S(=O)(=O)NC(=O)c2cc3cc(Cl)cc(Cl)n3n2)c1 [Example I-49] | 90%
39 | O=C(NS(=O)(=O)c1cc(Cl)ccc1Cl)c1cc2ccc(C(F)(F)F)cn2n1 [Example I-51] | 90%
40 | O=C(NS(=O)(=O)c1c(Cl)cccc1Cl)c1cc2ccc(C(F)(F)F)cn2n1 [Example I-52] | 90%
41 | CCOc1ccc(Cl)c(S(=O)(=O)NC(=O)c2cc3cc(Cl)cc(Cl)n3n2)c1 [Example I-57] | 100%
42 | CCCOc1ccc(Cl)c(S(=O)(=O)NC(=O)c2cc3cc(Cl)cc(Cl)n3n2)c1 [Example I-58] | 100%

Row | SMILES | nematicidal activity on the basis of the percentage of gall formation
43 | CCc1ccc(Cl)c(S(=O)(=O)NC(=O)c2cc3cc(Cl)cc(Cl)n3n2)c1 [Example I-59] | 100%
44 | CSc1ccc(Cl)c(S(=O)(=O)NC(=O)c2cc3cc(Cl)cc(Cl)n3n2)c1 [Example I-60] | 100%
45 | CCc1ccc(Cl)c(S(=O)(=O)NC(=O)c2cc3cc(C(F)(F)F)cc(Cl)n3n2)c1 [Example I-62] | 100%
46 | CCSc1cccc(Cl)c1S(=O)(=O)NC(=O)c1cc2cc(C(F)(F)F)cc(Cl)n2n1 [Example I-63] | 100%
47 | CC(C)Sc1cccc(Cl)c1S(=O)(=O)NC(=O)c1cc2cc(C(F)(F)F)cc(Cl)n2n1 [Example I-64] | 100%
48 | O=C(NS(=O)(=O)c1c(F)cccc1Cl)c1cc2cc(C(F)(F)F)cc(Cl)n2n1 [Example I-65] | 100%
49 | CC(C)Nc1cccc(F)c1S(=O)(=O)NC(=O)c1cc2cc(Cl)cc(Cl)n2n1 [Example I-66] | 90%
50 | O=C(NS(=O)(=O)c1c(F)cccc1Cl)c1cc2cc(Cl)cc(Cl)n2n1 [Example I-67] | 90%
51 | COc1ccc(F)c(S(=O)(=O)NC(=O)c2cc3cc(Cl)cc(Cl)n3n2)c1 [Example I-68] | 100%
52 | COc1ccc(Br)c(S(=O)(=O)NC(=O)c2cc3cc(Cl)cc(Cl)n3n2)c1 [Example I-69] | 100%
53 | COc1ccc(Br)c(S(=O)(=O)NC(=O)c2cc3cc(C(F)(F)F)cc(Cl)n3n2)c1 [Example I-70] | 100%
54 | CSc1cccc(Cl)c1S(=O)(=O)NC(=O)c1cc2cc(C(F)(F)F)cc(Cl)n2n1 [Example I-71] | 100%
55 | O=C(NS(=O)(=O)c1cc(C(F)(F)F)ccc1Cl)c1cc2cc(C(F)(F)F)cc(Cl)n2n1 [Example I-72] | 100%
56 | O=C(NS(=O)(=O)c1cc(C(F)(F)F)ccc1Br)c1cc2cc(C(F)(F)F)ccn2n1 [Example I-73] | 100%
57 | COc1ccc(F)c(S(=O)(=O)NC(=O)c2cc3cc(C(F)(F)F)cc(Cl)n3n2)c1 [Example I-74] | 100%
58 | CCc1ccc(C)c(S(=O)(=O)NC(=O)c2cc3cc(Cl)cc(Cl)n3n2)c1 [Example I-75] | 100%
59 | CSc1cccc(Cl)c1S(=O)(=O)NC(=O)c1cc2cc(Cl)cc(Cl)n2n1 [Example I-76] | 90%
60 | CCc1ccc(C)c(S(=O)(=O)NC(=O)c2cc3cc(C(F)(F)F)cc(Cl)n3n2)c1 [Example I-77] | 100%
61 | CCc1ccc(C)c(S(=O)(=O)NC(=O)c2cc3cc(C(F)(F)F)ccn3n2)c1 [Example I-78] | 100%

From patent US20180273534A1, “PYRAZOLOPYRIDINE SULFONAMIDES AS NEMATICIDES” (BAYER CROPSCIENCE AKTIENGESELLSCHAFT, priority 2014, published 2018)
